# Legend:
# [1] = other S1P receptor modulators, for comparison; cited from earlier work
# [2] = system: adult subjects with relapsing MS; experiment: FSIQ-RMS weekly symptoms score, change from baseline to Week 108; type: in vivo, human; details: FSIQ-RMS weekly symptoms score
# Source text: In some embodiments, the patient-reported outcome questionnaire is the Fatigue Symptoms and Impact Questionnaire—Relapsing Multiple Sclerosis (FSIQ-RMS) (available from Mapi Research Trust). The FSIQ-RMS is an MS specific 20-item PRO measure that comprises 2 domains: one measuring MS symptoms and one measuring MS-related impacts. See Hudgens S, et al., Development and Validation of the FSIQ-RMS: A New Patient-Reported Questionnaire to Assess Symptoms and Impacts of Fatigue in Relapsing Multiple Sclerosis. Value Health. 2019 April; 22 (4): 453-466. doi: 10.1016/j.jval.2018.11.007. Epub 2019 Feb. 21. PubMed PMID: 30975397. With 7 symptom items and 13 impact items (in 3 impacts subdomains: physical, cognitive and emotional, and coping), the FSIQ-RMS is a comprehensive, valid, and reliable measure of fatigue-related symptoms and impacts in RMS patients. FIG. 2B depicts a conceptual framework for the FSIQ-RMS.
# In some embodiments, the patient-reported outcome questionnaire is the symptom domain of the FSIQ-RMS. The FSIQ-RMS symptom domain (FSIQ-RMS-S) consists of seven items assessing fatigue-related symptoms with a recall period of 24 hours measured on an 11-point numeric rating scale; the standardized symptom domain score ranges from 0 to 100 with a higher score indicating greater fatigue. This domain (i.e., section 1 of the questionnaire) is completed on 7 consecutive days.
# The patient-reported outcome questionnaire used for the below Examples is the Fatigue Symptoms and Impact Questionnaire-Relapsing Multiple Sclerosis (FSIQ-RMS). The FSIQ-RMS is an MS specific 20-item PRO measure that comprises 2 domains: one measuring MS symptoms (7 items) and one measuring MS-related impacts (13 items). The 7 symptom items and 13 impact items (in 3 impacts subdomains: physical, cognitive and emotional, and coping) are presented below.
# For the MS symptoms domain, the FSIQ-RMS asks about a patient's fatigue-related symptoms of relapsing MS over the past 24 hours while doing routine daily activities (e.g., housework, yard work, shopping, working, etc.) for Items 1-6 or while at rest (e.g., reading a book, watching TV, etc.) for Item 7. Patients are asked to select a response on a scale of Oto 10 that best describes their experience and are asked to not skip any questions, with no answers being right or wrong.
# Secondary efficacy variables and testing strategy: Four secondary efficacy endpoints were analyzed as per the statistical testing strategy outlined in FIG. 1. • Change from baseline to Week 108 in fatigue-related symptoms as measured by the symptoms domain of the FSIQ-RMS patient-reported outcome [Fatigue] • Cumulative number of combined unique active lesions from baseline to Week 108 on brain MRI [CUALs] • Time to first 12-week confirmed disability accumulation (CDA) from baseline to EOS on Expanded Disability Status Scale (EDSS) [12-week CDA] • Time to first 24-week CDA from baseline to EOS on EDSS [24-week CDA]
# The FSIQ-RMS symptom domain (FSIQ-RMS-S) consists of seven items assessing fatigue-related symptoms with a recall period of 24 hours measured on an 11-point numeric rating scale; the standardized symptom domain score ranges from 0 to 100 with a higher score indicating greater fatigue. This domain (i.e., section 1 of the questionnaire) is completed on 7 consecutive days.
# FSIQ-RMS was completed during the pre-randomization period, at Visits 6, 7, 10, and 12 (Weeks 12, 24, 60, 84), 14 (EOT), and at unscheduled visits due to relapses (R1, R2, etc.) or other unscheduled visits (U1, U2, etc.) as described below. If applicable, FSIQ-RMS was performed at the corresponding visits in the PTOP.
# The completion of the FSIQ-RMS during the pre-randomization period was done as follows: At Visit 1 (Screening), subjects who appear eligible based on the assessments made during this visit (but prior to the results from the laboratory assessments are received) were provided with the electronic device containing the FSIQ-RMS. […]
# [3] = ALT increase relative to ULN; type: in vivo, human; details: ponesimod 20 mg arm, teriflunomide 14 mg arm
# [4] = 12-lead ECG heart rate on Day 1, change from pre-dose; type: in vivo, human
# Procedure: As per up-titration regimen, the dose of ponesimod on Day 1 is 2 mg.
# [5] = Reasons for premature treatment discontinuation; type: in vivo; details: ponesimod 20 mg, teriflunomide 14 mg
# Procedure: A total of 1468 subjects were screened. Of those, 1133 subjects were randomized (567 to ponesimod 20 mg and 566 to teriflunomide 14 mg) across 162 sites in 28 countries, and 1131 subjects received at least one dose of study drug. The disposition of subjects is summarized in Table 1 and a summary of reasons (primary reason) for treatment discontinuation are shown in Table 2. Overall treatment and study discontinuation were balanced across both treatment arms. A total of 6.5% and 2.5% of the subjects discontinued due to AEs or tolerability related reasons in ponesimod 20 mg and teriflunomide 14 mg, respectively, while 1.9% and 4.3% discontinued due to efficacy related reasons. There were 2 deaths reported during the study—both on teriflunomide 14 mg.
# [6] = Treatment-emergent adverse events, Safety Set
# Procedure: A prospective, multicenter, randomized, double-blind, active controlled, parallel-group, phase III, superiority study was conducted.
# The Safety Set (SAF) included all randomized subjects who received at least one dose of study treatment. Subjects were analyzed based on actual treatment taken, not randomized treatment.
# [7] = patients without Gd+T1 lesions at baseline
# [8] = Day 1 (ponesimod dose 2 mg per up-titration), Safety Set, N = 565 / 566
# [9] = Safety Set, ponesimod 20 mg N = 565, teriflunomide 14 mg N = 566
# [10] = ponesimod 20 mg, teriflunomide 14 mg
compound,measurement,setting,value
CCc1cc(/C(C)=N/OCc2ccc(C3CCCCC3)c(C(F)(F)F)c2)ccc1CN1CC(C(=O)O)C1 [siponimod],ECG HR effect: nadir post-dose,[1],3 to 4 h
CCCCCCCCc1ccc(CCC(N)(CO)CO)cc1 [fingolimod],ECG HR effect: nadir post-dose,[1],~6 h
C/C(O)=C(\C#N)C(=O)Nc1ccc(C(F)(F)F)cc1 [Teriflunomide],Change From Baseline to Week 108: Stable or Improved,[2]; patients with baseline fatigue below the median,about 55%
same,Change From Baseline to Week 108: Stable or Improved,[2]; [7],57.0%
same,Change From Baseline to Week 108: Worsened (≥6.3),[2]; [7],43.0%
same,Change From Baseline to Week 108: Stable or Improved,"[2]; patients without Gd+T1 lesions at baseline, listed as teriflunomide",about 57%
same,Proportion of subjects who experienced ALT increase >3×ULN,[3],8.3%
same,Proportion of subjects who experienced ALT increase >8×ULN,[3],2.1%
same,Mean heart rate reduction compared to pre-dose (maximum),"[4]; Day 1, 2-hours post dose, ponesimod arm dose on Day 1 is 2 mg",−1.7 bpm
same,Subjects with asymptomatic post-dose HR≤40 bpm,"[4]; Day 1, all had pre-treatment HR<55 bpm",none
same,Subjects who discontinued due to AEs or tolerability related reasons,[5],2.5%
same,AESI effect on heart rate and rhythm (including hypotension) on Day 1: Subjects with at least one AE,[6]; [8],0.4%
same,"AESI heart rate and rhythm on Day 1, PT: Atrioventricular block first degree",[6]; [8],0 n
same,"AESI heart rate and rhythm on Day 1, PT: Bradycardia",[6]; [8],0 n
same,"AESI heart rate and rhythm on Day 1, PT: Bundle branch block left",[6]; [8],0 n
same,"AESI heart rate and rhythm on Day 1, PT: Bundle branch block right",[6]; [8],0 n
same,"AESI heart rate and rhythm on Day 1, PT: Defect conduction intraventricular",[6]; [8],0 n
same,"AESI heart rate and rhythm on Day 1, PT: Sinus arrhythmia",[6]; [8],0 n
same,"AESI heart rate and rhythm on Day 1, PT: Sinus bradycardia",[6]; [8],0 n
same,Subject with at least one AE (treatment-emergent),[6]; [9],88.2%
same,Subject with at least one AE leading to study drug discontinuation,[6]; [9],6.0%
same,Subject with at least one Serious AE,[6]; [9],8.1%
same,"TEAEs leading to premature discontinuation of study drug, SOC: Eye disorders",[6]; [9],0 n
same,"TEAEs leading to premature discontinuation of study drug, SOC: Respiratory, thoracic and mediastinal disorders",[6]; [9],0 n
same,"TEAEs leading to premature discontinuation of study drug, SOC: Vascular disorders",[6]; [9],0 n
same,Treatment-emergent AESI: Hepatobiliary disorders/Liver enzyme abnormality,[6]; [9],14.5%
same,Treatment-emergent AESI: Hypertension,[6]; [9],9.0%
same,Treatment-emergent AESI: Pulmonary events,[6]; [9],2.7%
same,TEAE: ALT increased,[6]; [10],9.4%
same,TEAE: headache,[6]; [10],12.7%
same,TEAE: nasopharyngitis,[6]; [10],16.8%
same,TEAE: upper respiratory tract infection,[6]; [10],10.4%

# Source: patent US12502379B2, “Ponesimod for avoiding worsening of fatigue-related symptoms in multiple sclerosis patients” (Vanda Pharmaceuticals Inc., priority 2019, dated 2025)
